In US20230045421A1 (priority 2018, published 2023):

What follows are molecules tested on HBV rcDNA (assay: HepDE19 assay with bDNA quantitation of HBV rcDNA). Conditions: HepDE19 assay, inhibition of formation of rcDNA; read-out: DE-19bDNA EC50.
Format: cell-based, hepatitis B virus
Outline: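 Compounds, top concentration 25 μM in 8-point duplicate series, were applied to Tet-free HepDE19 cultures for 7 days. Branched-DNA quantitation of HBV rcDNA against untreated wells gave EC50 and EC90 by 4-parameter fit. Viability (CC50) came from ATP luminescence on parallel plates incubated 4 days.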
Molecule `CCN(C(=O)Nc1ccc(F)c(Cl)c1)C(c1cnc(OC)c2ccccc12)C(C)C` (single isomer, unassigned) [Compound 45, 3-(3-Chloro-4-fluorophenyl)-1-ethyl-1-(1-(1-methoxyisoquinolin-4-yl)-2-methylpropyl)urea] has an EC50 of 19 µM. For `CC(c1c[nH]c(=O)c2ccccc12)N(CCS(N)(=O)=O)C(=O)Nc1ccc(F)c(Cl)c1` (single isomer, unassigned) [Compound 119, 2-(3-(3-Chloro-4-fluorophenyl)-1-(1-(1-oxo-1,2-dihydroisoquinolin-4-yl)ethyl)ureido) ethanesulfonamide], the EC50 was 0.07 µM. `CC(c1cnc(NCc2ncn(C)n2)c2ccccc12)N(C)C(=O)Nc1ccc(F)c(Cl)c1` (single isomer, unassigned) [Compound 246, 3-(3-Chloro-4-fluorophenyl)-1-methyl-1-(1-(1-(((1-methyl-1H-1,2,4-triazol-3-yl)methyl)amino)isoquinolin-4-yl)ethyl)urea] gave an EC50 of 0.14 µM. In the case of `CCN(C(=O)Nc1ccc(F)c(Cl)c1)C(c1c[nH]c(=O)c2ccccc12)C(F)(F)F` (single isomer, unassigned) [Compound 74, 3-(3-chloro-4-fluorophenyl)-1-ethyl-1-(2,2,2-trifluoro-1-(1-oxo-1,2-dihydroisoquinolin-4-yl)ethyl)urea], the EC50 is reported as 15 µM. Work on `CC(c1c[nH]c(=O)c2ccccc12)N(CCNCC(F)(F)F)C(=O)Nc1ccc(F)c(Cl)c1` (single isomer, unassigned) [Compound 163, 3-(3-Chloro-4-fluorophenyl)-1-(1-(1-oxo-1,2-dihydroisoquinolin-4-yl)ethyl)-1-(2-((2,2,2-trifluoroethyl)amino)ethyl)urea] yielded an EC50 of 5.3 µM. `CC(c1c[nH]c(=O)c2ccccc12)N(CCCC#N)C(=O)Nc1ccc(F)c(Cl)c1` (single isomer, unassigned) [Compound 114, 3-(3-Chloro-4-fluorophenyl)-1-(3-cyanopropyl)-1-(1-(1-oxo-1,2-dihydroisoquinolin-4-yl)ethyl)urea] was tested, and the EC50 was 1.9 µM. `COCCOCCN(C(=O)Nc1ccc(F)c(Cl)c1)C(C)c1cnc(OC)c2ccccc12` (single isomer, unassigned) [Compound 121, 3-(3-Chloro-4-fluorophenyl)-1-(2-(2-methoxyethoxy)ethyl)-1-(1-(1-methoxyisoquinolin-4-yl)ethyl)urea] gave an EC50 of 23 µM.

Same assay, conditions: HepDE19 assay, inhibition of formation of relaxed circular DNA (rcDNA), bDNA quantitation; read-out: DE-19bDNA EC50
`CC(c1cnc(OCc2ncn(C)n2)c2cc(F)c(F)cc12)N(CCCO)C(=O)Nc1ccc(F)c(Cl)c1` (single isomer, unassigned) [Compound 349, 3-(3-chloro-4-fluorophenyl)-1-(1-(6,7-difluoro-1-((1-methyl-1H-1,2,4-triazol-3-yl)methoxy)isoquinolin-4-yl)ethyl)-1-(3-hydroxypropyl)urea] was tested, and the EC50 was 0.005 µM. `CCN(C(=O)Nc1ccc(F)c(Cl)c1)C(C)c1c[nH]c(=O)c2cc(F)c(F)cc12` (single isomer, unassigned) [Compound 406, 3-(3-Chloro-4-fluorophenyl)-1-(1-(6,7-difluoro-1-oxo-1,2-dihydroisoquinolin-4-yl)ethyl)-1-ethylurea] gave an EC50 of 2.1 µM.

Same assay, conditions: Hepatitis B virus, HepDE19, HepDE19 assay, inhibition of formation of rcDNA; read-out: DE-19bDNA EC50
With `CC(c1c[nH]c(=O)c2ccccc12)N(C)C(=O)Nc1ccc(F)c(Cl)c1` (racemic) [Compound 12, 3-(3-Chloro-4-fluorophenyl)-1-methyl-1-(1-(1-oxo-1,2-dihydroisoquinolin-4-yl)ethyl)urea] the EC50 was 0.16 µM. `CCCN(Cc1c[nH]c(=O)c2ccccc12)C(=O)Nc1ccc(F)c(Cl)c1` [Compound 28, 3-(3-Chloro-4-fluorophenyl)-1-((1-oxo-1,2-dihydroisoquinolin-4-yl)methyl)-1-propylurea] was tested, and the EC50 was 0.06 µM.

Same assay, conditions: read-out: DE-19bDNA EC50; HepDE19 assay, inhibition of formation of relaxed circular DNA (rcDNA), bDNA quantitation
`CC(c1c[nH]c(=O)c2cc(F)c(F)cc12)N(C)C(=O)Nc1cc(Cl)cc(Cl)c1` (single isomer, unassigned) [Compound 417, 3-(3,5-Dichlorophenyl)-1-(1-(6,7-difluoro-1-oxo-1,2-dihydroisoquinolin-4-yl)ethyl)-1-methylurea] gave an EC50 of 0.14 µM.
